Data: ChEMBL document CHEMBL5360581, “Discovery of a novel dual functional phenylpyrazole-styryl hybrid that induces apoptotic and autophagic cell death in bladder cancer cells” (Eur J Med Chem, 2023)
Calls of active or inactive are those of the source. The calls are words filed in the database; no cut-off is given here.

Experiments:
[1] = Cytotoxicity against human NHDF cells assessed inhibition of cell growth incubated for 72 hrs by MTT assay; format: toxicity, cell-based
[2] = Selectivity index, ratio of IC50 for cytotoxicity against human NHDF cells to IC50 for cytotoxicity against human A549 cells; format: toxicity, cell-based; conditions: NHDF cells and A549 cells, read-out: Ratio IC50
[3] = Selectivity index, ratio of IC50 for cytotoxicity against human NHDF cells to IC50 for cytotoxicity against human MCF7 cells; format: toxicity, cell-based; conditions: NHDF cells and MCF7 cells, read-out: Ratio IC50
SW-620 [4] = test: Antiproliferative activity against human SW620 cells assessed as reduction in cell viability at 20 uM measured for 72 hrs by MTT assay; format: functional, cell-based
[5] = Selectivity index, ratio of IC50 for cytotoxicity against human NHDF cells to IC50 for cytotoxicity against human EJ-28 cells
[6] = Selectivity index, ratio of IC50 for cytotoxicity against human NHDF cells to IC50 for cytotoxicity against human SW620 cells
EJ-28 [7] = test: Cytotoxicity against human EJ-28 cells assessed inhibition of cell growth incubated for 72 hrs by MTT assay; format: functional, cell-based; conditions: EJ-28, 72 h
HT-1080 [8] = test: Antiproliferative activity against human HT-1080 cells assessed as reduction in cell viability at 20 uM measured for 72 hrs by MTT assay; format: functional, cell-based
[9] = Selectivity index, ratio of IC50 for cytotoxicity against human NHDF cells to IC50 for cytotoxicity against human HT-1080 cells
MCF7 [10] = test: Antiproliferative activity against human MCF7 cells assessed as reduction in cell viability at 20 uM measured for 72 hrs by MTT assay; format: functional, cell-based
A549 [11] = test: Cytotoxicity against human A549 cells assessed inhibition of cell growth incubated for 72 hrs by MTT assay; format: functional, cell-based; conditions: A549, 72 h
A549 [12] = test: Antiproliferative activity against human A549 cells assessed as reduction in cell viability at 20 uM measured for 72 hrs by MTT assay; format: functional, cell-based
EJ-28 [13] = test: Antiproliferative activity against human EJ-28 cells assessed as reduction in cell viability at 20 uM measured for 72 hrs by MTT assay; format: functional, cell-based
MCF7 [14] = test: Cytotoxicity against human MCF7 cells assessed inhibition of cell growth incubated for 72 hrs by MTT assay; format: functional, cell-based; conditions: MCF7, 72 h
SW-620 [15] = test: Cytotoxicity against human SW620 cells assessed inhibition of cell growth incubated for 72 hrs by MTT assay; format: functional, cell-based; conditions: SW-620, 72 h
HT-1080 [16] = test: Cytotoxicity against human HT-1080 cells assessed inhibition of cell growth incubated for 72 hrs by MTT assay; format: functional, cell-based; conditions: HT-1080, 72 h

Compound	IC50 at 72 h [1] [µM]	selectivity ratio [2]	selectivity ratio [3]	Activity (SW-620 [4])	Ratio IC50 [5]	Ratio IC50 [6]	IC50 (EJ-28 [7]) [µM]	Activity (HT-1080 [8])	Ratio IC50 [9]	Activity (MCF7 [10])	IC50 (A549 [11]) [µM]	Activity (A549 [12])	Activity (EJ-28 [13])	IC50 (MCF7 [14]) [µM]	IC50 (SW-620 [15]) [µM]	IC50 (HT-1080 [16]) [µM]
Oc1ccc(Cl)cc1-c1cc(/C=C/c2ccc(Cl)s2)nn1-c1ccccc1	19.2	1.4	1.4	Active	1.4	1.4	10.1	Active	1.4	Active	13.3	Active	Active	8.7	10.4	13.5
COc1ccc(/C=C/c2cc(-c3cc(Cl)ccc3O)n(-c3ccccc3)n2)cc1	47	2.2	2.2	Active	2.2	2.2	14.3	Active	2.2	Active	20.9	Active	Active	12.1	19.8	17.2
COc1ccc(/C=C/c2cc(-c3ccccc3O)n(-c3ccccc3)n2)cc1OC	> 50	> 2.6	> 2.6	Active	>2.6	>2.6	18.6	Active	>2.6	Active	19.2	Active	Active	13	18.5	15.9
Oc1ccccc1-c1cc(/C=C/c2ccc(Cl)s2)nn1-c1ccccc1	18.5	1.1	1.1	Active	1.1	0.9	13.6	Active	1.1	Active	21.1	Active	Active	14.5	16.3	17.3
COc1cccc(/C=C/c2cc(-c3cc(Cl)ccc3O)n(-c3ccccc3)n2)c1	45.6	2.3	2.3	Active	2.3	2.3	8.6	Active	2.3	Active	16.5	Active	Active	10.9	19.5	17.4
Oc1ccccc1-c1cc(/C=C/c2ccccc2Cl)nn1-c1ccccc1	> 50	> 2.2	> 2.2	Active	>2.2	>2.2	11.7	Active	>2.2	Active	22.4	Active	Active	15.3	15.7	16.9
COc1ccc(/C=C/c2cc(-c3cc(Cl)ccc3O)n(-c3ccccc3)n2)cc1OC	39.9	2.5	2.5	Active	2.5	2.5	17.6	Active	2.5	Active	15.3	Active	Active	9.6	16.1	14.5
Oc1ccc(Cl)cc1-c1cc(/C=C/c2cccc(Cl)c2)nn1-c1ccccc1	16.2	1.2	1.2	Active	1.2	1.2	3.7	Active	1.2	Active	13.3	Active	Active	8.1	8.8	12.4
O=c1[nH]cc(F)c(=O)[nH]1 [FLUOROURACIL]	> 50	–	–	–	1.5	1.5	11.4	–	1.5	–	7.6	–	–	–	32.5	6
COc1cc(/C=C/c2cc(-c3cc(Cl)ccc3O)n(-c3ccccc3)n2)cc(OC)c1OC	39.6	3.9	3.9	Active	3.9	3.9	10.1	Active	3.9	Active	9.4	Active	Active	5.9	4.4	8.9
COc1ccc(/C=C/c2cc(-c3ccccc3O)n(-c3ccccc3)n2)cc1	> 50	> 2.4	> 2.4	Active	>2.4	>2.4	12.9	Active	>2.4	Active	20.8	Active	Active	13	7.9	14.7
Oc1ccccc1-c1cc(/C=C/c2ccc(Cl)c(Cl)c2)nn1-c1ccccc1	43.5	2	2	Active	2	2	15.9	Active	2	Active	21.5	Active	Active	18.1	18.6	22.2
Oc1ccccc1-c1cc(/C=C/c2cccc(Cl)c2)nn1-c1ccccc1	39.4	1.6	1.6	Active	1.6	1.6	8.9	Active	1.6	Active	24.3	Active	Active	10.9	11.6	13.8
Oc1ccc(Cl)cc1-c1cc(/C=C/c2ccccc2Cl)nn1-c1ccccc1	19.7	1.5	0.9	Active	1.5	1.5	5.1	Active	0.9	Active	13.2	Active	Active	5.7	9.5	10.9
